Reference: patent US8226986B2 (priority 2006, dated 2012)
Like-named read-outs stand apart in the source and are kept apart here. Marks after values point to notes of the source that are not given here.

Tests used:
[1] = system: myocardial ischemia-reperfusion injury; parameters: dose or concentration left out as unconfirmed; conditions: 1 um, 10 um NaHS, perfusion, 10 min prior to LCA occlusion; cited from earlier work
[2] = system: neutrophil adhesion, leukocyte-mediated inflam.; conditions: cited from earlier work
[3] = system: Irritable bowel syndrome; conditions: 25, 50, or 100 mg/kg IP, 10 minutes post IBS model; cited from earlier work
[4] = system: aortic occlusion-induced ischemia/reperfusion (I/R) injury; assay type: in vivo, pig; conditions: median, initial study
[5] = system: inflammation; conditions: 1, 5 and 10 mg/kg IP, 1-6 hours before study; cited from earlier work
[6] = system: erectile dysfunction; conditions: 0.25-80 umol/kg, Intracaver., before experiment; cited from earlier work
[7] = system: Gastric injury caused by NSAIDS; conditions: 25, 50, 100, or 150 mol/kg IP, immediately prior; cited from earlier work
[8] = system: myocardial ishemia-reperfusion injury; conditions: 3 mg/kg IP, 15 min before LAD; cited from earlier work
[9] = system: cardioprotectant; conditions: 2.8 umol/kg IV, time zero; cited from earlier work
[10] = system: Cerebral Ischemia; conditions: 0.18 mmol/kg IP, 24 hours after MCAO; cited from earlier work
[11] = system: vascular calcification; conditions: 2.8 or 14 uM/day, daily; cited from earlier work

For `O.[Na+].[SH-]` [NaHS•xH2O], the “Benefit: infarct size” value [1] is listed as “NAHS, limited infarct”.

In the case of sodium sulfide [Na2S], the “Benefit: inflammation” value ([2]; rat, in vivo, ip) is given as “inhibits inflammation”.

In the case of `Nc1ccc(O)c(C(=O)Oc2ccc(-c3cc(=S)ss3)cc2)c1` [ATB-429], the “Benefit: pain and inflammation” value [3] is given as “Pain killing and some”.

In the case of `S` [NaHS, sodium hydrosulfide], the “Tail moment (comet assay, DNA damage)” value ([4]; 1 h after clamping) is reported as 0.12 §, the “Tail moment (comet assay, DNA damage)” value ([4]; 2 h after clamping) is reported as 0.12 § and the “Tail moment (comet assay, DNA damage)” value ([4]; 4 h after clamping) is reported as 0.14. For the same compound, the “Tail moment (comet assay, DNA damage)” value ([4]; 8 h after clamping) was 0.14, the “Tail moment (comet assay, DNA damage)” value ([4]; Before clamping) was 0.11 and the “Tail moment (comet assay, DNA damage)” value ([4]; Before infusion) was 0.125. For the same compound, the “Benefit: substance P levels” value [5] was “Increases substance P”, the “Benefit: intra-cavernous pressure” value [6] was “Increase intra-” and the “Benefit: inflammation” value ([2]; 1-100 uMol/kg IP, 30 min prior to cargeenan injection) was “inhibits inflammation”. The “Benefit: injury produced by NSAID and ASA” value [7] was “reduces injury”, the “Benefit: cardioprotection” value [8] was “cardioprotective opens” and the “Benefit: central venous pressure” value [9] was “decrease central”. For the same compound, the infarct volume [10] was “increased to 150% of % of control” and the “Benefit: vascular calcification” value [11] was “reduces vascular”.
